We go through 12 molecules from patent US20160214958A1, “COMPOUNDS AND USE FOR TREATING CANCER” (GLIONOVA AB, priority 2013, published 2016).

pEC50: −log10 of the molar value.

The first assay relates to glioma stem cell line U3013. Put plainly: In vitro cancer cell and CSC viability assay (ATP quantification, CellTiterGlo). Conditions: Homo sapiens; U3013, 24 hours exposure; read-out: In vitro efficacy (viability) EC50. In kind it is cell-based, human. The procedure:
The ability of Examples S1-S23 to selectively induce cytotoxicity in glioma/glioblastoma cancer cells or glioma/glioblastoma cancer stem cells was determined by quantification of ATP production in glioma stem cell line U3013 in the presence of using CellTiterGlo reagent (Promega). Cells were exposed to compound in serial dilution in the range 1 nM to 50 µM for 24 hours and viability assessed with respect to negative control (dmso, no cell death) and positive control (staurosporine, full cell death). […] The EC50 of S10 remained largely similar at 2, 3 and 4 days of incubation. […] The individual isomers (S21-S23) of racemic S10 were evaluated in order to determine the enantiospecific pharmacology of the individual isomers.
Negative (100% DMSO) and positive (10 mM S10 in 100% DMSO) controls were placed in rows 1-4 and 5-8, respectively, of column 12. The wells were diluted with 190 μl of the corresponding growth media and 5 μl of each well of compound solution transferred to quadruplicate wells of a sterile 384-well black clear bottom plate (BD Falcon) containing GSC at 70% confluency in 45 μl growth media. The plate was incubated for 24 hours, after which the plate was removed from the incubator and each well imaged in bright-field using an Operetta Imaging system (PerkinElmer) at 37° C. and 5% CO2 to determine vacuole accumulation at each concentration. The plate was then allowed to cool to room temperature and each well treated with 25 μl freshly CellTiterGlo (Promega) reagent. The plate was shaken for 15 minutes and luminescence measured using a Victor3 (Perkin Elmer) microtiterplate reader. Total luminescence was normalized relative to control and curve fitting performed using GraphPad Prism (v6.02) software.
`Cc1ccc(-c2cc([C@@H](O)[C@@H]3CCCCN3)c3ccccc3n2)cc1C#N` (racemic) [Compound S24, mixture of 5-(4-((R)-hydroxy((S)-piperidin-2-yl)methyl)quinolin-2-yl)-2-methylbenzonitrile and 5-(4-((S)-hydroxy((R)-piperidin-2-yl)methyl)quinolin-2-yl)-2-methylbenzonitrile]: the pEC50 – broadly, −log10 of the EC50, conventionally taken in molar units – was 4.49.

Consider `CCCN(CCC)C(=O)c1ccc(-c2cc([C@@H](O)[C@@H]3CCCCN3)c3ccccc3n2)cc1` (racemic) [Compound S25, mixture of 4-(4-((R)-hydroxy((S)-piperidin-2-yl)methyl)quinolin-2-yl)-N,N-dipropylbenzamide and 4-(4-((S)-hydroxy((R)-piperidin-2-yl)methyl)quinolin-2-yl)-N,N-dipropylbenzamide], for which the pEC50 is 4.45. As to `O[C@H](c1cc(-c2ccc(C(F)(F)F)cc2)nc2ccccc12)[C@@H]1CCCCN1` (racemic) [Compound S26, mixture of (R)-((S)-piperidin-2-yl)(2-(4-(trifluoromethyl)phenyl)quinolin-4-yl)methanol and (S)-((R)-piperidin-2-yl)(2-(4-(trifluoromethyl)phenyl)quinolin-4-yl)methanol], the negative logarithm of the EC50 (pEC50) was 4.87. The same measure, in the same setting: with `O[C@H](c1cc(-c2ccc(C(F)(F)F)nc2)nc2ccccc12)[C@@H]1CCCCN1` (racemic) [Compound S27, mixture of (R)-((S)-piperidin-2-yl)(2-(6-(trifluoromethyl)pyridin-3-yl)quinolin-4-yl)methanol and (S)-((R)-piperidin-2-yl)(2-(6-(trifluoromethyl)pyridin-3-yl)quinolin-4-yl)methanol] the figure was 4.42. Regarding `O[C@H](c1cc(-c2ccc(C(F)(F)F)cc2)nc2ccccc12)[C@H]1CCCCN1` (racemic) [Compound S28, mixture of (R)-((R)-piperidin-2-yl)(2-(4-(trifluoromethyl)phenyl)quinolin-4-yl)methanol and (S)-((S)-piperidin-2-yl)(2-(4-(trifluoromethyl)phenyl)quinolin-4-yl)methanol], the pEC50 was 4.84.

Consider `OC(c1cc(-c2ccccc2)nc2c1ccc1ccccc12)C1CCCCN1` (stereo not drawn) [Compound S1, (2-phenylbenzo[h]quinolin-4-yl)(piperidin-2-yl)methanol], for which the negative logarithm of the EC50 (pEC50) is 6.41. For the molecule `OC(c1cc([C@]23CC4CC[C@H](C[C@H]4C2)C3)nc2c(Cl)cc(Cl)cc12)C1CCCCN1` (stereo partly drawn) [Compound S2, (6,8-dichloro-2-((2R,3aS,5R)-octahydro-1H-2,5-methanoinden-2-yl)quinolin-4-yl)(piperidin-2-yl)methanol], the pEC50 is 6.39. The same measure, in the same setting: the figure for `Cc1ccc2nc(Nc3ccc(Cl)cc3)cc(C(O)C3CCCCN3)c2c1` (stereo not drawn) [Compound S3, (2-((4-chlorophenyl)amino)-6-methylquinolin-4-yl)(piperidin-2-yl)methanol] is 6.14; for `OC(c1cc(-c2ccc(Cl)cc2)nc2c(Cl)cccc12)C1CCCCN1` (stereo not drawn) [Compound S4, (8-chloro-2-(4-chlorophenyl)quinolin-4-yl)(piperidin-2-yl)methanol] it is 5.99. For the molecule `OC(c1cc(-c2ccccc2)nc2c(Cl)cc(Cl)cc12)C1CCCCN1` (stereo not drawn) [Compound S5, (6,8-dichloro-2-phenylquinolin-4-yl)(piperidin-2-yl)methanol], the pEC50 is 5.96. On the same count and under the same terms, the figure for `OC(c1cc(-c2cccc(Cl)c2)nc2ccccc12)C1CCCCN1` (stereo not drawn) [Compound S6, (2-(3-chlorophenyl)quinolin-4-yl)(piperidin-2-yl)methanol] is 5.90.

Still in this assay, the particulars now being: U3013, 24 hours exposure.
`O[C@H](c1cc(-c2ccc(C(F)(F)F)nc2)nc2ccccc12)[C@H]1CCCCN1` (mixture of isomers) [Compound S29, mixture of (R)-((R)-piperidin-2-yl)(2-(6-(trifluoromethyl)pyridin-3-yl)quinolin-4-yl)methanol and (S)-((S)-piperidin-2-yl)(2-(6-(trifluoromethyl)pyridin-3-yl)quinolin-4-yl)methanol]: the “In vitro efficacy (viability) EC50” value was “No activity”.
